Here are results for one compound from article PMC9320886, “Daily Intraperitoneal Administration of Rosiglitazone Does Not Improve Lung Function or Alveolarization in Preterm Rabbits Exposed to Hyperoxia” (Pharmaceutics, 2022).

Read-outs that look alike come from different tables or passages of the source.

A short description of series [1]: plasma protein binding by equilibrium dialysis. More on the design: fraction unbound at 4 h: dose or concentration left out as unconfirmed. The series is classed as in vitro ADME. The settings on record: both sexes, New Zealand White, preterm rabbit plasma (pooled), 37 °C. As for the experimental part: In vitro plasma protein binding was determined in preterm rabbit plasma (New Zealand White Pooled Gender, BIOIVT, Hicksville, NY, USA) by equilibrium dialysis using Thermo Fisher Scientific Pierce RED rapid equilibrium dialysis devices (Device Inserts 8K MWCO, Thermo Fisher Scientific, Waltham, MA, USA). The assay was performed using a Tecan Evoware robotic system (Männedorf, Switzerland). Test compounds and the positive control were diluted in the pooled plasma (three donors) to a final concentration of […] and then dispensed into the red chamber of the RED device inserts. Phosphate-Buffered Saline (PBS, from Merck KGaA, Darmstadt, Germany) was dispensed into the other side. Upon completion of 4 h of incubation (37 °C under shaking), equal aliquots were removed from each chamber and matrix matched with even volumes of plasma or buffer for LC-MS/MS analyses.
Free and Bound percentages of the compounds were calculated as follows:(1) %Free=Area buffer sample/Area plasma sample×100 (2) % Bound=100−%Free
In general terms: In equilibrium dialysis free small molecules cross a membrane that holds back macromolecules.

Series [2] is described as follows: Caco-2 permeability assay. In kind it is in vitro ADME. The note with it: human, apical to basolateral. As for the experimental part: Caco-2 cells were purchased from ReadyCell (Barcelona, Spain). The cells arrived already seeded and differentiated (21-days) in 96-well plates (CacoReady 96-well kits, ReadyCell). Cells were maintained in a cell culture medium: Dulbecco’s modified Eagle’s medium (DMEM) 1 g/L glucose containing 10% fetal bovine serum, 1% L-glutamine 200 mM, and 1% penicillin (10,000 U/mL)–streptomycin (10 mg/mL), all from Merck KGaA. The buffer used in the assay was Hanks Balanced Salt Solution (HBSS, Merck). Control compounds were: sulpiride (low permeability control), metoprolol (high permeability control), talinolol (P-glycoprotein transport (Pgp) substrate control), and GF120918 (Elacridar, Pgp inhibitor), all purchased from Merck KGaA.
The day of the experiment, the integrity of the cell monolayers was assessed before and after the assay by measuring the transepithelial electrical resistance (TEER). The permeability of the compounds across the cell monolayer was determined by measuring their transport in both directions: apical to basolateral (A → B) and basolateral to apical (B → A) in the absence and presence of Elacridar (a known P-gp inhibitor). The donor working solution was prepared by dilution of the DMSO stock of the test compound or positive control with HBSS (pH 7.4) to 10 µM. For A → B directional transport, the donor working solution (with test compound or positive control, with or without P-gp inhibitor) was added to the apical (A) and HBSS was added to the basolateral (B) compartment. For B → A directional transport, the donor working solution (with positive control or test compound […], with or without P-gp inhibitor) was added to the basolateral (B) and HBSS was added to the apical (A) compartment. The assay was performed with a Hamilton Star Lab robotic system. Samples were collected at t0 and 2 h after incubation (5% CO2, 95% relative humidity, 37 °C) for LC-MS/MS analyses.
Apparent permeability (Papp) was calculated with the following equation: (5) Papp(cm/sec)=(Vr/C0)×(1/A)×(Cr(t)/t) where Vr is the volume of the solution in the receiving compartment (mL); C0 is the initial test compound concentration in the donor compartment (expressed as area ratio); A is the membrane surface area (0.14 cm^2); Cr (t) is the measured concentration of the receiver well at time t120 (expressed as area ratio); and t is time of incubation (sec).

Series [3] deals with preterm rabbits exposed to hyperoxia. Put plainly: quantification of blood lipid levels. In kind it is in vivo, rabbit. As for the experimental part: Whole blood samples from pups in the RGZ (1 and 10 mg/kg groups) and control groups (n = 6 per group) were obtained though cardiac puncture. Briefly, a 22G needle was inserted into the left ventricle and approximately 1.5 mL of whole blood were collected in K2-EDTA tubes and stored on ice. Within 60 min after blood draw, samples were centrifuged at 1500× g for 15 min and the […] was immediately stored at −80 °C. At the day of quantification, samples were gently thawed overnight at 4 °C and the level of triglycerides (TG), total cholesterol, high-density cholesterol (HDL), and non-HDL were determined using a Cobas 8000 modular analyzer (Roche).

Series [4] in a line: Caco-2 permeability assay. The series is classed as in vitro ADME. The note with it: human, basolateral to apical. (In general: Caco-2 monolayers are a common model of the intestinal barrier.)
On the set-up of series [5]: method as in PMID 19484746. The note with it: PND 13 mice, chow of nursing mice with 2.5–10 mg/kg of RGZ; cited from earlier work.
On the set-up of series [6]: method as in PMID 20729387. The settings on record: newborn mice, mothers received two antenatal doses of 3 mg/kg 48 and 72 h prior to delivery; cited from earlier work.
For series [7], the system named is neonatal rats exposed to hyperoxia. More on the design: method as in PMID 19304912. The settings on record: hyperoxia (95% O2), 1 or 3 mg/kg for 7 days; cited from earlier work.
The test system of series [8] is patients with type 2 diabetes. The note with it: cited from earlier work.
[9] abbreviates: daily 1 mg/kg, PND 7, vs vehicle, p < 0.01.

As usually defined, the fraction unbound is the share of the substance not bound to proteins or other matrix. Broadly, the Papp A→B is the apparent permeability from the apical to the basolateral side of a cell layer. As usually defined, the Papp B→A is the apparent permeability from the basolateral to the apical side of a cell layer. In the case of `CN(CCOc1ccc(CC2SC(=O)NC2=O)cc1)c1ccccn1` (centres unmarked) [RGZ, rosiglitazone], in series [1], the fraction unbound at 4 h was 0.025. In addition, the apical-to-basolateral permeability (Papp A→B) at 2 h, 10 µM in series [2] (Caco-2, pH 7.4, with Elacridar (GF120918), concentration not given, with Elacridar, read-out: Papp with Pgp Inhibitor (A–B)) is 16.3 ×10⁻⁶ cm/s; in series [2] (Caco-2, pH 7.4, 10 µM, 2 h, without Pgp inhibitor, read-out: Papp (A–B)), 14.5 ×10⁻⁶ cm/s. Also, the “serum non-HDL” value in series [3] (setting [9]) is “significantly increased”. Further, the serum total cholesterol entry in series [3] (setting [9]) was “significantly increased”. For the same compound, the serum triglycerides entry in series [3] (daily 1 mg/kg, PND 7, vs vehicle, p < 0.05) is reported as “significantly increased”. In series [3] (daily 10 mg/kg, PND 7, p < 0.0001 for all lipids), the serum lipids entry was “aberrant modulation”. The basolateral-to-apical permeability (Papp B→A) at 2 h, 10 µM was 11.4 ×10⁻⁶ cm/s in series [4] (Caco-2, pH 7.4, with Elacridar (GF120918), concentration not given, with Elacridar, read-out: Papp with Pgp Inhibitor (B–A) (converted)) and 10 ×10⁻⁶ cm/s in series [4] (Caco-2, pH 7.4, 2 h, without Pgp inhibitor, read-out: Papp (B–A) (converted)). For the same compound, the “RGZ in the lung tissue” value in series [5] was 90.7 pg/g. For the same compound, the plasma levels in series [6] was 350 ng/mL. For the same compound, the “RAC and alveolar septal thickness” value in series [7] is reported as “significantly improved”. Further, in series [8] (adult patients with type 2 diabetes and dyslipidemia), the “plasma triglycerides, large- and medium-sized lipoproteins, low- and high-density cholesterol” value is reported as “increases”. Moreover, the “risk of heart failure and cardiovascular mortality” value in series [8] (diabetic patients) is given as “increases the risk”.
